Tests used:
[1] = Kefir evaluation of creamyness/mouthfeel enhancement; conditions: compared to base without compound
From the text: A commercial Kefir drink was used as a base to evaluate the creamyness/mouthfeel enhancement properties of the compounds. Samples with compound were compared to the base without compound added.

[2] = Skim milk evaluation of creamyness/mouthfeel enhancement; conditions: 10 ppm in skim milk, compared to base without compound
From the text: Skim milk was used as a base to evaluate the creamyness/mouthfeel enhancement properties of the compounds. Samples with compound were compared to the base without compound added.

[3] = Sweetened yogurt evaluation of creamyness/mouthfeel enhancement; conditions: 10 ppm in yogurt with 5% sucrose and 0.03% creamy mouthfeel flavor, compared to base without compound
From the text: Sweetened yogurt with flavor was used as a base to evaluate the creamyness/mouthfeel enhancement properties of the compounds. The yogurt base was sweetened with 5% sucrose and 0.03% creamy mouthfeel flavor (Givaudan 97584209). Samples with compound were compared to the sweetened base without compound added.

[4] = Low fat milk evaluation of creamyness/mouthfeel enhancement; conditions: 4 ppm in low fat milk (1.5-2% fat), compared to base without compound
From the text: Low fat milk (1.5-2% fat) was used as a base to evaluate the creamyness/mouthfeel enhancement properties of the compounds. Samples with compound were compared to the base without compound added.

[5] = Rebaudioside A evaluation (taste descriptors); conditions: compared to base without compound
Experimental: A tasting base was prepared with 300 ppm Rebaudioside A in ater. Compounds were added to the base in the concentrations indicated in the table and compared to the base without compound added.

[6] = Red Bull drink evaluation of masking; conditions: compared to base without compound
Experimental: A commercial Red Bull™ Energy drink was used as a base to evaluate the masking properties of the compounds. Compounds were added to the base in the concentrations indicated in the table and compared to the base without compound added.

[7] = Sucralose evaluation of bitter masking; conditions: compared to base without compound
Experimental: Compounds were prepared in a sucralose base containing 80 ppm sucralose in water. Compounds were calculated in the base and compared to the base without may compound added.
A solution containing 80 ppm sucralose in water was used as a base to evaluate the bitter masking properties of the compounds. Samples with compound were compared to the base without compound added.

[8] = J. Agr. Food. Chem. 2007, 55, 9634-9645; cited from earlier work
[9] = 2 ppm in commercial Kefir drink
[10] = 5 ppm in commercial Kefir drink
[11] = 2 ppm in 300 ppm Rebaudioside A in water
[12] = 5 ppm in 300 ppm Rebaudioside A in water
[13] = 10 ppm in 300 ppm Rebaudioside A in water
[14] = 10 ppm in Red Bull Energy drink
[15] = 2 ppm in 80 ppm sucralose in water
[16] = 5 ppm in 80 ppm sucralose in water
[17] = 10 ppm in 80 ppm sucralose in water

SMILES | Taste Description [1, 9] | Taste Description [1, 10] | Taste Description [2] | Taste Description [3] | Taste Description [4] | Taste Description [5, 11] | Taste Description [5, 12] | Taste Description [5, 13] | Taste Description [6, 14] | Taste Description [7, 15] | Taste Description [7, 16] | Taste Description [7, 17] | effect on cream flavour / creaminess [8] | Taste Description ([6]; 5 ppm in Red Bull Energy drink)
CC(O)CCCCCCCC(=O)O (stereo not drawn) [9-Hydroxy decanoic acid, 9-hydroxydecanoic Acid] | Very creamy, slight mouthfeel, more | Very creamy, mouth-coating, smooth, | Some mouthfeel effect | Lingering waxy profile, fattier. | Slightly more mouthfeel | Less bitter, lingering, more | Less bitter, lingernig, waxy, | Offtaste, not much | Masks better than control | Less bitter. lingering, more | Backend masks lingering. | Nice mouthfeel, full upfront |  | 
CCCCCCCCCC1CCCC(=O)O1 (stereo not drawn) [δ-tetradecalactone] |  |  |  |  |  |  |  |  |  |  |  |  | able to enhance the retronasal cream flavour | 
CC(O)CCCCC1CCC(=O)O1 (stereo not drawn) [9-hydroxy gamma decalactone, 5-(5-hydroxyhexyl)dihydrofuran-2(3H)-one] | More creamy than control, upfront | More dairy note, more mid body. | No mouthfeel |  |  | Slight fatty note at end. | Not much | High offnote, changes | Good masking, offnote | Floral, little masking, waxy, | Some effect | High offnote. masks |  | Less sweetness, strong linger
CCC(O)CCCCCCC(=O)O (stereo not drawn) [8-Hydroxy decanoic acid, 8-hydroxydecanoic Acid] |  | Creamy. fatty mouthfeel. good | Some mouthfeel effect | Lingering waxy profile, fattier. | Slight mouthfeel | Less bitter, less bitter | Less bitter, less bitter | Helps overall especially |  | Less lingering, more | Velvety mouthfeel. very full. | No masking, adds |  | 
CCC(O)CCCC1CCC(=O)O1 (stereo not drawn) [8-hydroxy gamma decalactone, 5-(4-hydroxyhexyl)dihydrofuran-2(3H)-one] | Much creamier, fattier, fuller, | more mid body, creamier | Some mouthfeel effect |  |  | Masks lots of bitter, less | Some masking | High offnote, masks more | Offnote, similar to control | Floral, little masking, waxy, | Some effect | Masks sweetness, floral, |  | Good masking. less sweet
